Reference: patent US6956030B2, “Use of mometasone furoate for treating upper airway diseases” (Schering Corporation, priority 1994, dated 2005)
Marks after values point to notes of the source that are not given here.

Experiments:
[1] = HPLC/radio-flow metabolite profiling of plasma, urine and fecal extracts after ^3H-MF; format: in vivo, normal healthy male volunteers
Source text: The substantial minimization of the systemic effect of mometasone furoate administered intranasally or by oral inhalation has been measured by High Performance Liquid Chromatography (HPLC) metabolite profiling of plasma radioactivity of mometasone furoate, its substantially complete (>98%) first-pass metabolism in the liver and by a minimal reduction in cortisol secretion levels.
(§1) Plasma, urine, expired air filters, Respirgard and fecal samples were collected and assayed for radioactivity content. The limit of quantitation (LOQ) for plasma radioactivity ranged from 0.103 to 0.138 ng eq/ml., except for the nasal spray treatment where the LOQ was 0.025 ng eq/ml. Selected plasma, urine and fecal samples were analyzed for metabolite profiles.
Selected plasma, urine and fecal extracts were analyzed by high performance liquid chromatography (HPLC) with radio-flow monitoring to determine metabolite profiles. […] Approximately 1.5% of the 3 hr. plasma radioactivity was associated with parent drug indicating extensive first past metabolism and rapid inactivation by the liver. In contrast, following intravenous administration, approximately 39% of the 3 hr. plasma radioactivity was associated with parent drug. Approximately 12% and 33% of the 3 hr. plasma radioactivity was associated with parent drug following administration of the MDI and Gentlehaler, respectively. In general, the plasma concentrations of radioactivity following the nasal and oral suspension routes of administration were too low for metabolite profiling.
Hydrolysis of plasma and urine was performed with an enzyme preparation containing both β-glucuronidase and aryl sulfatase. These experiments yielded modest changes in the HPLC metabolite profiles that were consistent with the hydrolytic release of conjugated metabolites.

[2] = Drug metabolism/clinical pharmacology study: absorption and excretion of total radioactivity after ^3H-MF by various routes; format: in vivo, normal healthy male volunteers; details: for AUC (1) of total radioactivity, dose normalized / Cmax of total radioactivity, dose normalized: based on dose normalized data; for percent of dose as tritiated water in the body: estimated from urinary distillation experiments
Protocol: In addition, a single-dose absorption, excretion and metabolism study using 200 mcg of ^3H-mometasone furoate as the nasal spray formulation was conducted in 6 normal male volunteers. When systemic absorption (based on urinary excretion) was compared to an intravenously administered dose of ^3H-mometasone furoate, it was 8%.
A drug metabolism and clinical pharmacology study was conducted by administering (by various routes) tritium-labeled mometasone furoate (“^3H-MF”) to 6 groups of 6 normal male volunteers in each group. Blood and urine samples were collected for measurement of total drug (including metabolites).
The objectives of these studies in male volunteers were to determine the absorption, metabolism and excretion of ^3H-labeled mometasone furoate (“^3H-MF”) following administration by oral swallow as a solution and as an aqueous suspension of the monohydrate, by oral inhalation as a suspension from a standard metered dose inhaler (MDI) and from a metered dose inhaler containing a spacer device (Gentlehaler), by nasal inhalation as an aqueous suspension of the mometasone furoate monohydrate from a nasal spray unit and by intravenous injection as a solution.
Thirty-six (n=6 per treatment group) normal healthy male volunteers between the ages of 19 and 40 yr. (average 29 yr.) having weights in accordance with current actuarial tables (+10%) were enrolled in these single dose studies. All subjects were determined to be in good health by their medical history, physical examinations, clinical and laboratory tests.
as §1
Pharmacokinetics—The mean (n=6) plasma concentrations of total radioactivity are illustrated in Summary FIG. 1 and the mean (n=6) pharmacokinetic parameters derived from total plasma radioactivity are presented in Table 2.

[3] = test system: plasma cortisol; experiment: Phase I rising single-dose safety and tolerance study, metered dose inhaler, 24-hour plasma cortisol; format: in vivo, healthy male volunteers
Protocol: Several Phase I studies were conducted using mometasone furoate formulated for delivery as a suspension in a pressurized metered dose inhaler (MDI). In a randomized, third-party blinded, placebo-controlled rising single-dose safety and tolerance study, aerosolized mometasone furoate was administered by a metered dose inhaler to eight healthy male volunteers. Doses were administered at 11 p.m. and plasma cortisol concentrations were measured during the following 24-hour period.

[4] = of the inhalation dose; cited from earlier work
[5] = cited from earlier work; for efficacy in treating asthma in clinical trials: clinical trials / Phase II; for systemic side effects: in vivo

Compound: C[C@@H]1C[C@H]2[C@@H]3CCC4=CC(=O)C=C[C@]4(C)[C@@]3(Cl)[C@@H](O)C[C@]2(C)[C@@]1(OC(=O)c1ccco1)C(=O)CCl [^3H-MF]
- 3 hr. plasma radioactivity associated with parent drug ([1]; Gentlehaler): ~33%
- urine metabolite profile ([1]; Gentlehaler): all of the radioactivity was associated with metabolites more polar than parent drug
- 3 hr. plasma radioactivity associated with parent drug ([1]; MDI): Approximately 12%
- 3 hr. plasma radioactivity associated with parent drug ([1]; intravenous): approximately 39%
- urinary and fecal extract metabolite profile ([1]; intravenous and oral solution): all of the radioactivity was associated with metabolites more polar than parent drug
- fecal extract metabolite profile ([1]; nasal spray, oral suspension, MDI and Gentlehaler): presence primarily of mometasone furoate
- 3 hr. plasma radioactivity associated with parent drug ([1]; oral solution): Approximately 1.5%
- plasma metabolite profile ([1]; oral solution): most of the plasma radioactivity was associated with metabolites more polar than the available standards
- % Absorbed (AUC): radioactivity absorbed, dose normalized versus intravenous data ([2]; Gentlehaler): 69* %
- % Absorbed (Urine): radioactivity absorbed, urinary excretion compared to the intravenous dose ([2]; Gentlehaler): 67%
- Feces (% dose): administered radioactivity excreted in feces through 168 hr ([2]; Gentlehaler): 89%
- U + F (% dose): total dose recovered in urine and feces through 168 hr ([2]; Gentlehaler): 105%
- Urine (% dose): administered radioactivity excreted in the urine through 168 hr ([2]; Gentlehaler): ~16%
- absorption of drug-derived radioactivity (dose normalized AUC and urinary excretion data) ([2]; Gentlehaler): 67-69%
- AUC (1) of total radioactivity to infinity ([2]; Gentlehaler 0.40 mg): 110 ng eq hr/ml
- AUC (1) of total radioactivity, dose normalized ([2]; Gentlehaler): 275 ng eq hr/ml
- Cmax of total radioactivity, dose normalized ([2]; Gentlehaler): 1.71 ng eq/ml
- % Absorbed (AUC): radioactivity absorbed, dose normalized versus intravenous data ([2]; MDI): 23* %
- % Absorbed (Urine): radioactivity absorbed, urinary excretion compared to the intravenous dose ([2]; MDI): 30%
- Feces (% dose): administered radioactivity excreted in feces through 168 hr ([2]; MDI): 86%
- U + F (% dose): total dose recovered in urine and feces through 168 hr ([2]; MDI): 94%
- Urine (% dose): administered radioactivity excreted in the urine through 168 hr ([2]; MDI): ~7%
- absorption of drug-derived radioactivity (dose normalized AUC and urinary excretion data) ([2]; MDI): 23-30%
- AUC (1) of total radioactivity to infinity ([2]; MDI 0.86 mg): 81 ng eq hr/ml
- AUC (1) of total radioactivity, dose normalized ([2]; MDI): 94 ng eq hr/ml
- Cmax of total radioactivity, dose normalized ([2]; MDI): 0.93 ng eq/ml
- tritium label exchanged with body water ([2]; human, in vivo): less than 4%
- Feces (% dose): administered radioactivity excreted in feces through 168 hr ([2]; intravenous): 54%
- U + F (% dose): total dose recovered in urine and feces through 168 hr ([2]; intravenous): 78%
- AUC (1) of total radioactivity to infinity ([2]; intravenous solution 1.03 mg): 401 ng eq hr/ml
- Cmax (C5min) of total radioactivity ([2]; intravenous solution 1.03 mg, mean n=6): 23.7 ng eq/ml
- percent of dose as tritiated water in the body ([2]; intravenous): approximately 3.7%
- Feces (% dose): administered radioactivity excreted in feces through 168 hr ([2]; nasal spray): 78%
- U + F (% dose): total dose recovered in urine and feces through 168 hr ([2]; nasal spray): 80%
- AUC (1) of total radioactivity to infinity ([2]; nasal spray 0.19 mg): BQL
- Cmax of total radioactivity ([2]; nasal spray 0.19 mg, LOQ 0.025 ng eq/ml): BQL**
- Cmax of total radioactivity ([2]; nasal spray 0.19 mg, LOQ 0.025 ng eq/ml, listed as 3H-mometasone furoate): below the limit of quantification
- % Absorbed (Urine): radioactivity absorbed, urinary excretion compared to the intravenous dose ([2]; nasal spray, listed as 3H-mometasone furoate): 8%
- % Absorbed (AUC): radioactivity absorbed, dose normalized versus intravenous data ([2]; oral solution): 122%
- % Absorbed (Urine): radioactivity absorbed, urinary excretion compared to the intravenous dose ([2]; oral solution): 104%
- Feces (% dose): administered radioactivity excreted in feces through 168 hr ([2]; oral solution): 62%
- U + F (% dose): total dose recovered in urine and feces through 168 hr ([2]; oral solution): 87%
- AUC (1) of total radioactivity to infinity ([2]; oral solution 1.03 mg): 488 ng eq hr/ml
- Cmax of total radioactivity ([2]; oral solution 1.03 mg, mean n=6): 4.8 ng eq/ml
- percent of dose as tritiated water in the body ([2]; oral solution): ~2.9%
- Feces (% dose): administered radioactivity excreted in feces through 168 hr ([2]; oral suspension): 73%
- U + F (% dose): total dose recovered in urine and feces through 168 hr ([2]; oral suspension): 75%
- AUC (1) of total radioactivity to infinity ([2]; oral suspension 0.99 mg): BQL
- Cmax of total radioactivity ([2]; oral suspension 0.99 mg, LOQ 0.103 to 0.138 ng eq/ml): BQL
- route of excretion of radioactivity ([2]; regardless of dosage form and route of administration): predominantly excreted in the feces

Compound: CCC(=O)OCC(=O)[C@@]1(OC(=O)CC)[C@@H](C)C[C@H]2[C@@H]3CCC4=CC(=O)C=C[C@]4(C)[C@@]3(Cl)[C@@H](O)C[C@@]21C [beclomethasone dipropionate]
- reduction of 24-hour area under the curve plasma cortisol profile (AUC 0-24) compared to placebo ([3]; single dose 1000 mcg by MDI at 11 p.m.): 30%
- reduction of 24-hour area under the curve plasma cortisol profile (AUC 0-24) compared to placebo ([3]; single dose 2000 mcg by MDI at 11 p.m.): 38%
- reduction of 24-hour area under the curve plasma cortisol profile (AUC 0-24) compared to placebo ([3]; single dose 4000 mcg by MDI at 11 p.m.): 65%

Compound: CCCC1O[C@@H]2C[C@H]3[C@@H]4CCC5=CC(=O)C=C[C@]5(C)[C@H]4[C@@H](O)C[C@]3(C)[C@]2(C(=O)CO)O1 (stereo partly shown) [budesonide]
- systemic bioavailability after oral ingestion [4]: greater than 10%

Compound: CCCC(=O)O[C@]1(C(=O)CSC(=O)CC)CC[C@H]2[C@@H]3CCC4=CC(=O)CC[C@]4(C)[C@H]3[C@@H](O)C[C@@]21C [butixocort propionate]
- efficacy in treating asthma in clinical trials [5]: some efficacy
- systemic side effects [5]: low systemic side-effects

Compound: CCS[C@]1(SC)CC[C@H]2[C@@H]3CCC4=CC(=O)C=C[C@]4(C)[C@@]3(F)[C@@H](O)C[C@@]21C [tipredane]
- efficacy in treating asthma in clinical trials [5]: have not demonstrated a level of efficacy in treating asthma which would be considered therapeutically useful
- systemic side effects [5]: low systemic side effects
